Measured values reported in patent publication US8063225B2, “Tricyclic compound derivatives useful in the treatment of neoplastic diseases, inflammatory disorders and immunomodulatory disorders” (Chembridge Corporation, priority 2006, dated 2011).

What was measured:
[1] = molecular target: T1, IGF1R tyrosine kinase (Homo sapiens, UniProt P08069); assay: IGF1R tyrosine kinase assay (Kinase-Glo ATP depletion or PT66/PT100 AlphaScreen); conditions: biochemical tyrosine kinase assay
T1 construct: 6×His- or GST-tagged kinase domain fragments of the corresponding RTKs expressed in baculovirus system; host or cells: baculovirus system
T1 sequence (P08069 999-1274 limits assumed): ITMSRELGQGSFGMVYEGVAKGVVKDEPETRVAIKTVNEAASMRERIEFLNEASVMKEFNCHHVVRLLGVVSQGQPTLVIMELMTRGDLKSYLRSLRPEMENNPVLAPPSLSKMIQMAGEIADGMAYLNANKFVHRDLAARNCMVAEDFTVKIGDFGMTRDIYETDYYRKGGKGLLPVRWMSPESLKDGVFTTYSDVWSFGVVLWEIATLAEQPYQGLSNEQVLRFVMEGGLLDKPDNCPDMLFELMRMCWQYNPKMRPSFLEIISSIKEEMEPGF
Protocol: (§1) To determine inhibition of several tyrosine kinases, such as IGF1R, InsR, Alk, TrkA and Jak2, kinase assays are conducted using either Kinase-Glo (Promega) or AlphaScreen (PerkinElmer) kinase assay platforms. The Kinase-Glo Luminescent Kinase Assay is a homogeneous method for measuring kinase activity by determining the amount of ATP remaining after a kinase reaction. The luminescent signal is proportional to the amount of ATP and inversely proportional to the amount of kinase activity. Tyrosine kinase PT66 AlphaScreen Assay is a high-sensitivity homogeneous, anti-phosphotyrosine antibody-mediated luminescent proximity method measuring, incorporation of phosphate in synthetic poly(Glu-Tyr) substrate. The kinase preparations used consist of purified recombinant, 6×His- or GST-tagged kinase domain fragments of the corresponding RTKs expressed in baculovirus system.
(§2) The IGF1R tyrosine kinase is assayed in Kinase-Glo ATP depletion assay using the synthetic polymer poly(Glu-Tyr, 4:1) (Sigma Chemicals) as a phosphoacceptor substrate. Each reaction mixture consists of a total volume of 10 μl and contains 40 ng of the enzyme, 5 μg of poly(Glu-Tyr), 10 μM of ATP and variable concentrations of test compounds. The mixtures also contain 50 mM Tris-HCl, pH 7.5; 5 mM MgCl2; 5 mM MnCl2; 2 mM DTT and 0.01% Tween 20. The reaction mixtures are incubated at 37° C. for 60 minutes and residual concentration of ATP in the mixture is determined by adding luciferase-containing Kinase-Glo (Promega) development reagent and counting luminescence levels using Fusion Universal Microplate Analyzer (PerkinElmer). Tested compounds are dissolved in dimethyl sulfoxide to a stock concentration of 10 mM and are typically evaluated in the assay at eight concentrations in 1 nM to 20 μM range, each in quadruplicate. […] IC50 values are derived by non-linear regression analysis using Prism 3.0 software (Graphpad Software). Other tyrosine kinases are assayed according to the same protocol after titrating amount of the enzyme to provide optimal signal-to-noise ratio and no more than 30% of total ATP consumption in the reaction conditions used.
(§3) The IGF1R tyrosine kinase is assayed in Phosphotyrosine (PT66 or PT 100) AlphaScreen chemiluminescent assay (PerkinElmer) according to the manufacturerer's recommendations. Each kinase reaction mixture consists of a total volume of 15 μl and contains 0.1-1 ng of the enzyme, 7 ng of biotinylated poly(Glu-Tyr) (Cis-Bio), 10 μM of ATP and variable concentrations of test compounds. The mixtures also contain 50 mM Tris-HCl, pH 7.5; 5 mM MgCl2; 5 mM MnCl2; 2 mM DTT and 0.01% Tween 20. The reaction mixtures are incubated at room temperature for 30 minutes. Ten (10) μl of the mixture of […] and donor beads (as supplied by the manufacturer) is then added to the reaction and the incubation is continued for an additional 60 minutes.

[2] = molecular target: T2, InsR (Homo sapiens, UniProt P06213); assay: Tyrosine kinase assay (Kinase-Glo or AlphaScreen), InsR; conditions: biochemical tyrosine kinase assay
T2 construct: 6×His- or GST-tagged kinase domain fragments of the corresponding RTKs expressed in baculovirus system; host or cells: baculovirus system
T2 sequence (P06213 1023-1298 limits assumed, species assumed): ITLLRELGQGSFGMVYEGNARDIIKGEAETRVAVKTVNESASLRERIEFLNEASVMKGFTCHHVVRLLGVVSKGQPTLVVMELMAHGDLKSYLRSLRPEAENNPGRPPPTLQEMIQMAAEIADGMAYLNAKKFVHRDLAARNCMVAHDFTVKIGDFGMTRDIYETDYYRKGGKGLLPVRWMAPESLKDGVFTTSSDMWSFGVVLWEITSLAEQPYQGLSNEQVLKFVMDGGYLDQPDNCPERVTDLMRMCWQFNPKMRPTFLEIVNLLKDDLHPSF
Protocol: as §1, §2, §3

[3] = molecular target: T3, Alk (Homo sapiens, UniProt Q9UM73); assay: Tyrosine kinase assay (Kinase-Glo or AlphaScreen), Alk; conditions: biochemical tyrosine kinase assay
T3 construct: 6×His- or GST-tagged kinase domain fragments of the corresponding RTKs expressed in baculovirus system; host or cells: baculovirus system
T3 sequence (Q9UM73 1116-1392 limits assumed, species assumed): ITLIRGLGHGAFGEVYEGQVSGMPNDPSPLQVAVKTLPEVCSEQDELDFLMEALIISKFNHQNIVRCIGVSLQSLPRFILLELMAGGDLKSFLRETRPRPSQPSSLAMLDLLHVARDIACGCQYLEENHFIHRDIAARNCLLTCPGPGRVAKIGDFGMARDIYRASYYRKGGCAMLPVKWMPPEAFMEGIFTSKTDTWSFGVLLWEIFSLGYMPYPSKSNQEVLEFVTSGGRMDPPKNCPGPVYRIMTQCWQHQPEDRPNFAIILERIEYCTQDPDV
Protocol: as §1, §2, §3

[4] = molecular target: T4, Jak2 (Homo sapiens, UniProt O60674); assay: Tyrosine kinase assay (Kinase-Glo or AlphaScreen), Jak2; conditions: biochemical tyrosine kinase assay
T4 construct: 6×His- or GST-tagged kinase domain fragments of the corresponding RTKs expressed in baculovirus system; host or cells: baculovirus system
T4 sequence (O60674 849-1124 limits assumed, species assumed): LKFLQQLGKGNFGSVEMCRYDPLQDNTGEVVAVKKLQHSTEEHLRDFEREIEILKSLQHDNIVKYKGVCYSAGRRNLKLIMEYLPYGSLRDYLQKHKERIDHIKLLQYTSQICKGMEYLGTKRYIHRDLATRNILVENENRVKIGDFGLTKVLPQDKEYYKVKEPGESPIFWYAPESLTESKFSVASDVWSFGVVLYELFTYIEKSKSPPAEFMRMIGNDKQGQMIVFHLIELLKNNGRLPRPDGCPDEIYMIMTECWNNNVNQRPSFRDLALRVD
Protocol: as §1, §2, §3

[5] = tested on: Ba/F3; assay: Cell proliferation inhibition, Cell Titer-Glo, Ba/F3; assay type: cell-based; conditions: Mus musculus, BaF3; cell proliferation assay, Ba/F3 cells
Description: (§4) IGF1R and other tyrosine kinase inhibitors can inhibit the proliferation of certain cancer cell lines indicating their possible therapeutic utility for treating the corresponding cancer types. Cancer cell lines of interest and control normal lines, including CHO, HEK293, BA/F3, COLO205, PC3, DU145, MCF7, Panc1, ACHN, Hep G2, H460, K562, TT, U87-MG, CAOV-3, SK-MEL5, Karpas 299 and human multiple myeloma cell lines H929, MM1s, MM1r, UTMC2, CPM2, KMS11, My5, KMS12PE, My7, JJN3, KMS18, U266, SKMM2, RPMI-8226 are plated in white, clear-bottomed 384-well cell culture plates at 2500-5000 cells per well and supplied with dilutions of tested compounds After a desired period of time (typically 3 days), the number of viable cells is quantitated by using Cell Titer-Glo Luminescent Cell Viability Assay (Promega), a cell proliferation assay system based on detection of total amount of ATP present as a measure of cell metabolic activity. The plated cells are mixed with the Cell Titer-Glo developing reagent and counted in a luminescence multiwell plate reader according to the standard manufacturer's protocol to generate IC50 curves for cell proliferation inhibition. Results are typically reported as percent of growth (% viability =(OD72h(compound)−ODday0))/(OD72h(no compound)−ODday0). Alternatively, viable cells are quantitated by using the conventional colorimetric MTT assay. The MTT assay is based on the cleavage of the yellow tetrazolium salt MTT to purple formazan crystal by metabolic active cells. The formazan is then solubilized, and the concentration determined by optical density at 570 nm. The cells plated and incubated with a compound as described above are supplemented with the solution of MTT and incubated for 2-3 hours. The growth medium is removed and dimethyl sulfoxide is added into each well to dissolve the formazan. The absorbance is measured on an ELISA plate reader with a test wavelength of 570 nm and a background subtraction wavelength of 630 nm to obtain sample signal (OD570-OD630). […] The results are reported in terms of IC50 value for a particular compound and a cell line in the standard 3-day proliferation assay using Cell Titer-Glo. […] The results are reported in terms of IC50 value for a particular compound and a cell line in the standard 3-day proliferation assay using MTT assay.

[6] = tested on: Karpas-299; assay: Cell proliferation inhibition, Cell Titer-Glo, Karpas-299; assay type: cell-based; conditions: Homo sapiens; cell proliferation assay, Karpas-299 cells
Description: as §4

[7] = tested on: K562; assay: Cell proliferation inhibition, Cell Titer-Glo, K562; assay type: cell-based; conditions: Homo sapiens; cell proliferation assay, K562 cells
Description: as §4

Row | SMILES | IC50 [1] [µM] | IC50 [2] [µM] | IC50 [3] [µM] | IC50 [4] [µM] | IC50 [5] [µM] | IC50 [6] [µM] | IC50 [7] [µM]
1 | COCCN1CCC(CN2C(=O)c3cc4nc(-c5c(NC[C@@H](O)c6cccc(Cl)c6)cc[nH]c5=O)[nH]c4cc3C2=O)CC1 [compound 24] | < 0.5 | < 0.5 | 0.5 to 5 | 0.5 to 5 | – | – | –
2 | O=C1c2cc3nc(-c4c(NC[C@@H](O)c5cccc(Cl)c5)cc[nH]c4=O)[nH]c3cc2C(=O)N1CCCn1ccnc1 [compound 45] | 0.5 to 5 | 0.5 to 5 | 0.5 to 5 | 0.5 to 5 | 5 to 15 | 5 to 15 | –
3 | CC(Nc1cc[nH]c(=O)c1-c1nc2cc3c(cc2[nH]1)C(=O)N(C1CCN(C)CC1)C3=O)C1COc2ccccc2O1 (stereo not drawn) [compound 40] | 5 to 15 | 5 to 15 | 5 to 15 | 0.5 to 5 | 0.5 to 5 | 5 to 15 | 5 to 15
4 | O=C1CCCN1CCCN1C(=O)c2cc3nc(-c4c(NC[C@@H](O)c5cccc(Cl)c5)cc[nH]c4=O)[nH]c3cc2C1=O [compound 47] | 0.5 to 5 | 0.5 to 5 | 5 to 15 | 0.5 to 5 | 5 to 15 | 5 to 15 | –
5 | O=C1c2cc3nc(-c4c(NC[C@@H](O)c5cccc(Cl)c5)cc[nH]c4=O)[nH]c3cc2C(=O)N1CC(O)CO (stereo partly drawn) [compound 46] | < 0.5 | 0.5 to 5 | > 15 | > 15 | 5 to 15 | 5 to 15 | –
6 | O=C1c2cc3nc(-c4c(NC[C@@H](O)c5cccc(Cl)c5)cc[nH]c4=O)[nH]c3cc2C(=O)N1CCc1c[nH]cn1 [compound 9] | 0.5 to 5 | 0.5 to 5 | 0.5 to 5 | 0.5 to 5 | – | – | –
7 | O=C1c2cc3nc(-c4c(NC[C@@H](O)c5cccc(Cl)c5)cc[nH]c4=O)[nH]c3cc2C(=O)N1CCc1cccnc1 [compound 27] | > 15 | > 15 | > 15 | > 15 | – | – | –
8 | CN1CCC(N2C(=O)c3cc4nc(-c5c(NCC(O)c6ccncc6)cc[nH]c5=O)[nH]c4cc3C2=O)CC1 (stereo not drawn) [compound 7] | 0.5 to 5 | 5 to 15 | > 15 | 0.5 to 5 | – | – | –
9 | O=C1c2cc3nc(-c4c(NC[C@@H](O)c5cccc(Cl)c5)cc[nH]c4=O)[nH]c3cc2C(=O)N1C(CO)CO [compound 25] | < 0.5 | < 0.5 | 5 to 15 | < 0.5 | – | – | –
10 | Cc1ccc(OC[C@H](O)CNc2cc[nH]c(=O)c2-c2nc3cc4c(cc3[nH]2)C(=O)N(CCCN2CCCC2)C4=O)c(C)c1 [compound 48] | < 0.5 | < 0.5 | 5 to 15 | 0.5 to 5 | 0.5 to 5 | 0.5 to 5 | –

Further lines, results first:

Row | IC50 [1] [µM] | IC50 [2] [µM] | IC50 [3] [µM] | IC50 [4] [µM] | IC50 [5] [µM] | IC50 [6] [µM] | IC50 [7] [µM] | SMILES
11 | 0.5 to 5 | 5 to 15 | > 15 | 5 to 15 | > 15 | > 15 | > 15 | CN(C)CC(C)(C)CN1C(=O)c2cc3nc(-c4c(NCC(O)COc5cccc(Cl)c5)ccnc4O)[nH]c3cc2C1=O (stereo not drawn) [compound 61]
12 | < 0.5 | < 0.5 | 0.5 to 5 | 0.5 to 5 | > 15 | 5 to 15 | – | Cc1c(Cl)cccc1OC[C@H](O)CNc1cc[nH]c(=O)c1-c1nc2cc3c(cc2[nH]1)C(=O)N(CCCN1CCCC1)C3=O [compound 115]
13 | 0.5 to 5 | 0.5 to 5 | 5 to 15 | 0.5 to 5 | > 15 | > 15 | > 15 | CN(C)CC(C)(C)CN1C(=O)c2cc3nc(-c4c(NC[C@@H](O)c5cccc(Cl)c5)ccnc4O)[nH]c3cc2C1=O [compound 60]
14 | 5 to 15 | 0.5 to 5 | 5 to 15 | 0.5 to 5 | – | – | – | COc1ccc2c(ccn2C[C@H](O)CNc2cc[nH]c(=O)c2-c2nc3cc4c(cc3[nH]2)CN(C2CCN(C)CC2)C4=O)c1 [compound 170]
15 | < 0.5 | 0.5 to 5 | 0.5 to 5 | 0.5 to 5 | > 15 | > 15 | > 15 | CN(C)CCN1CCC(N2C(=O)c3cc4nc(-c5c(NC[C@@H](O)COc6c(F)ccc(Cl)c6F)cc[nH]c5=O)[nH]c4cc3C2=O)CC1 [compound 128]
16 | > 15 | 5 to 15 | 5 to 15 | 0.5 to 5 | > 15 | > 15 | > 15 | CN1CCC(N2C(=O)c3cc4nc(-c5c(NNC(=O)C(O)c6ccccc6)ccnc5O)[nH]c4cc3C2=O)CC1 (stereo not drawn) [compound 67]
17 | 0.5 to 5 | 0.5 to 5 | 0.5 to 5 | 0.5 to 5 | > 15 | > 15 | > 15 | CN1CCC(N2C(=O)c3cc4nc(-c5c(NC[C@@H](O)Cn6cnc7ccccc76)ccnc5O)[nH]c4cc3C2=O)CC1 [compound 49]
18 | < 0.5 | 0.5 to 5 | 5 to 15 | 0.5 to 5 | > 15 | > 15 | – | Cc1c2c(cc3[nH]c(-c4c(NC[C@@H](O)COc5c(F)ccc(Cl)c5F)cc[nH]c4=O)nc13)C(=O)N(C1CCN(C)CC1)C2=O [compound 122]
19 | < 0.5 | < 0.5 | 0.5 to 5 | 0.5 to 5 | 0.5 to 5 | 0.5 to 5 | – | O=C1c2cc3nc(-c4c(NC[C@@H](O)COc5c(F)ccc(Cl)c5F)cc[nH]c4=O)[nH]c3cc2C(=O)N1CC1CCN(CCO)CC1 [compound 120]
20 | > 15 | > 15 | > 15 | > 15 | > 15 | 0.5 to 5 | – | COCCCN1C(=O)c2cc3nc(-c4c(NC[C@@H](O)COc5ccc(C)cc5C)cc[nH]c4=O)[nH]c3cc2C1=O [compound 109]
21 | 0.5 to 5 | 0.5 to 5 | 0.5 to 5 | 0.5 to 5 | 0.5 to 5 | 5 to 15 | – | Cc1c(Cl)cccc1OC[C@H](O)CNc1cc[nH]c(=O)c1-c1nc2c(C)c3c(cc2[nH]1)C(=O)N(C1CCN(C)CC1)C3=O [compound 121]
